pKi: −log10 of the molar value. Positions of bridges follow the written chain, without caps; N, C: chain ends. Residues, ends and D or L forms follow the SMILES beside them.
Columns and labels:
Prothrombin = Prothrombin (Bos taurus, UniProt P00735); test: Enzyme Inhibition Assay; settings: pH 8.5; 22 °C
Protocol: (§1) The enzyme reaction was initiated by adding fluorescence peptide substrate to reaction mixture containing enzyme and test compounds. […] Hydrolysis rates were recorded in presence of six to seven different concentrations of inhibitor.

[1] = target: T1, Suppressor of tumorigenicity 14 protein (Homo sapiens, UniProt Q9Y5Y6); test: Enzyme Inhibition Assay; settings: pH 8.5; 22 °C
T1 sequence (Q9Y5Y6 whole entry): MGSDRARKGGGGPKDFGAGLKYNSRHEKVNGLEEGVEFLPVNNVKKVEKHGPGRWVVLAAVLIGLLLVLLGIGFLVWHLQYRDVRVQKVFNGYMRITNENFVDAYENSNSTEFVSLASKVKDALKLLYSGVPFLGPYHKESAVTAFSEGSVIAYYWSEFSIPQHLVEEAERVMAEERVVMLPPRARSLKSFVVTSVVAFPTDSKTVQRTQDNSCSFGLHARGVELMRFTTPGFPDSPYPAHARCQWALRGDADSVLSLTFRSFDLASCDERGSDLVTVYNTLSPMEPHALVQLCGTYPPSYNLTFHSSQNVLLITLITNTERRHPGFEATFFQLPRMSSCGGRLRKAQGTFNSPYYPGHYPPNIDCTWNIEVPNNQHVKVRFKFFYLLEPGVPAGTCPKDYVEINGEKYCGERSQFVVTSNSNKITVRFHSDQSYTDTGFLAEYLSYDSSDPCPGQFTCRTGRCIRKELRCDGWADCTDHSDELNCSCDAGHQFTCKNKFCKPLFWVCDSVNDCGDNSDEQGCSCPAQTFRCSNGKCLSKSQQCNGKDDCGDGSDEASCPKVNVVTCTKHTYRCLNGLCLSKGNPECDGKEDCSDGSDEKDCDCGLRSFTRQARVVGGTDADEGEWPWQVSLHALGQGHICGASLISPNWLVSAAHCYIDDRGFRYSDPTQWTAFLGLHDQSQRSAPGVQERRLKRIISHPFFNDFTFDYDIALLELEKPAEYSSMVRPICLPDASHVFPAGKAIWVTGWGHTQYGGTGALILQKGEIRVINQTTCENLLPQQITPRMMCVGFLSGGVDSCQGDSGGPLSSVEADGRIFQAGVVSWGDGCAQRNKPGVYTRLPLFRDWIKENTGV
Protocol: as §1

SMILES	pKi (Prothrombin)	pKi [1]
CC[C@H](C)[C@@H]1NC(=O)[C@@H]2CCCN2C(=O)[C@@H]2CCCN2C(=O)[C@H]([C@@H](C)CC)NC(=O)[C@H](CO)NC(=O)[C@H](CCCCN)NC(=O)[C@H]([C@@H](C)O)NC(=O)[C@@H]2CSSC[C@H](NC1=O)C(=O)N[C@@H](Cc1ccccc1)C(=O)N1CCC[C@H]1C(=O)N[C@@H](CC(=O)O)C(=O)NCC(=O)N[C@@H](CCCCN=C(N)N)C(=O)N2 [2-[(1R,4S,7S,13S,19S,22S,25S,28S,31R,34S,40S,43S,49S)-25-(4-aminobutyl)-49-benzyl-4,19-bis[(2S)-butan-2-yl]-34-(4-carbamimidamidobutyl)-28-[(1R)-1-hydroxyethyl]-22-(hydroxymethyl)-3,6,12,18,21,24,27,30,33,36,39,42,48,51-tetradecaoxo-53,54-dithia-2,5,11,17,20,23,26,29,32,35,38,41,47,50-tetradecaazapentacyclo[29.20.4.0^{7,11}.0^{13,17}.0^{43,47}]pentapentacontan-40-yl]acetic acid]	5.12	6.07
CC[C@H](C)[C@@H]1NC(=O)[C@@H]2CCCN2C(=O)[C@@H]2CCCN2C(=O)[C@H]([C@@H](C)CC)NC(=O)[C@H](CO)NC(=O)[C@H](CCCCN)NC(=O)[C@H]([C@@H](C)O)NC(=O)[C@@H]2CSSC[C@H](NC1=O)C(=O)N[C@@H](Cc1ccccc1)C(=O)N1CCC[C@H]1C(=O)N[C@@H](CC(=O)O)C(=O)NCC(=O)N[C@@H](CCCNC(N)=O)C(=O)N2 [2-[(1R,4S,7S,13S,19S,22S,25S,28S,31R,34S,40S,43S,49S)-25-(4-aminobutyl)-49-benzyl-4,19-bis[(2S)-butan-2-yl]-34-[3-(carbamoylamino)propyl]-28-[(1R)-1-hydroxyethyl]-22-(hydroxymethyl)-3,6,12,18,21,24,27,30,33,36,39,42,48,51-tetradecaoxo-53,54-dithia-2,5,11,17,20,23,26,29,32,35,38,41,47,50-tetradecaazapentacyclo[29.20.4.0^{7,11}.0^{13,17}.0^{43,47}]pentapentacontan-40-yl]acetic acid]	3.08	4.65
CC[C@H](C)[C@@H]1NC(=O)[C@@H]2CCCN2C(=O)[C@@H]2CCCN2C(=O)[C@H]([C@@H](C)CC)NC(=O)[C@H](CO)NC(=O)[C@H](CCCCN)NC(=O)[C@H]([C@@H](C)O)NC(=O)[C@@H]2CSSC[C@H](NC1=O)C(=O)N[C@@H](Cc1ccccc1)C(=O)N1CCC[C@H]1C(=O)N[C@@H](CC(=O)O)C(=O)NCC(=O)N[C@@H](Cc1ccc(N=C(N)N)cc1)C(=O)N2 [2-[(1R,4S,7S,13S,19S,22S,25S,28S,31R,34S,40S,43S,49S)-25-(4-aminobutyl)-49-benzyl-4,19-bis[(2S)-butan-2-yl]-34-[(4-carbamimidamidophenyl)methyl]-28-[(1R)-1-hydroxyethyl]-22-(hydroxymethyl)-3,6,12,18,21,24,27,30,33,36,39,42,48,51-tetradecaoxo-53,54-dithia-2,5,11,17,20,23,26,29,32,35,38,41,47,50-tetradecaazapentacyclo[29.20.4.0^{7,11}.0^{13,17}.0^{43,47}]pentapentacontan-40-yl]acetic acid]	3.79	4.05
CC[C@H](C)[C@@H]1NC(=O)[C@H](CO)NC(=O)[C@H](CCCCN)NC(=O)[C@H]([C@@H](C)O)NC(=O)[C@@H]2CSSC[C@H](NC(=O)[C@H](CCC(N)=O)NC(=O)[C@@H]3CCCN3C(=O)[C@@H]3CCCN3C1=O)C(=O)N[C@@H](Cc1ccccc1)C(=O)N1CCC[C@H]1C(=O)N[C@@H](CC(=O)O)C(=O)NCC(=O)N[C@@H](CCCN=C(N)N)C(=O)N2 [2-[(1R,4S,7S,13S,19S,22S,25S,28S,31R,34S,40S,43S,49S)-25-(4-aminobutyl)-49-benzyl-19-[(2S)-butan-2-yl]-34-(3-carbamimidamidopropyl)-4-(2-carbamoylethyl)-28-[(1R)-1-hydroxyethyl]-22-(hydroxymethyl)-3,6,12,18,21,24,27,30,33,36,39,42,48,51-tetradecaoxo-53,54-dithia-2,5,11,17,20,23,26,29,32,35,38,41,47,50-tetradecaazapentacyclo[29.20.4.0^{7,11}.0^{13,17}.0^{43,47}]pentapentacontan-40-yl]acetic acid] (cyclo(CFPDGRCTKSIPPQ); disulfide 1-7)	< 2.60	5.63
CC[C@H](C)[C@@H]1NC(=O)[C@@H]2CCCN2C(=O)[C@@H]2CCCN2C(=O)[C@H]([C@@H](C)CC)NC(=O)[C@H](CO)NC(=O)[C@H](CCCCCN)NC(=O)[C@H]([C@@H](C)O)NC(=O)[C@@H]2CSSC[C@H](NC1=O)C(=O)N[C@@H](Cc1ccccc1)C(=O)N1CCC[C@H]1C(=O)N[C@@H](CC(=O)O)C(=O)NCC(=O)N[C@@H](CCCN=C(N)N)C(=O)N2 [2-[(1R,4S,7S,13S,19S,22S,25S,28S,31R,34S,40S,43S,49S)-25-(5-aminopentyl)-49-benzyl-4,19-bis[(2S)-butan-2-yl]-34-(3-carbamimidamidopropyl)-28-[(1R)-1-hydroxyethyl]-22-(hydroxymethyl)-3,6,12,18,21,24,27,30,33,36,39,42,48,51-tetradecaoxo-53,54-dithia-2,5,11,17,20,23,26,29,32,35,38,41,47,50-tetradecaazapentacyclo[29.20.4.0^{7,11}.0^{13,17}.0^{43,47}]pentapentacontan-40-yl]acetic acid]	4.34	4.55
CC[C@H](C)[C@@H]1NC(=O)[C@@H]2CCCN2C(=O)[C@@H]2CCCN2C(=O)[C@H]([C@@H](C)CC)NC(=O)[C@H](CO)NC(=O)[C@H](CCCNC(=N)N)NC(=O)[C@H]([C@@H](C)O)NC(=O)[C@@H]2CSSC[C@H](NC1=O)C(=O)N[C@@H](Cc1ccccc1)C(=O)N1CCC[C@H]1C(=O)N[C@@H](CC(=O)O)C(=O)NCC(=O)N[C@@H](CCCNC(=N)N)C(=O)N2 [2-[(1R,4S,7S,13S,19S,22S,25S,28S,31R,34S,40S,43S,49S)-49-benzyl-4,19-bis[(2S)-butan-2-yl]-25,34-bis(3-carbamimidamidopropyl)-28-[(1R)-1-hydroxyethyl]-22-(hydroxymethyl)-3,6,12,18,21,24,27,30,33,36,39,42,48,51-tetradecaoxo-53,54-dithia-2,5,11,17,20,23,26,29,32,35,38,41,47,50-tetradecaazapentacyclo[29.20.4.0^{7,11}.0^{13,17}.0^{43,47}]pentapentacontan-40-yl]acetic acid]	6.07	5.32
CC[C@H](C)[C@@H]1NC(=O)[C@@H]2CCCN2C(=O)[C@@H]2CCCN2C(=O)[C@H]([C@@H](C)CC)NC(=O)[C@H](CO)NC(=O)[C@H](CCCCN)NC(=O)[C@H]([C@@H](C)O)NC(=O)[C@H](CO)NC(=O)[C@H](CCCN=C(N)N)NC(=O)CNC(=O)[C@H](CC(=O)O)NC(=O)[C@@H]2CCCN2C(=O)[C@H](Cc2ccccc2)NC(=O)[C@H](CO)NC1=O [2-[(1S,7S,10S,13S,16S,22S,25S,31S,34S,37S,40S,43S,46S)-40-(4-aminobutyl)-16-benzyl-10,46-bis[(2S)-butan-2-yl]-31-(3-carbamimidamidopropyl)-37-[(1R)-1-hydroxyethyl]-13,34,43-tris(hydroxymethyl)-2,8,11,14,17,23,26,29,32,35,38,41,44,47-tetradecaoxo-3,9,12,15,18,24,27,30,33,36,39,42,45,48-tetradecaazatetracyclo[46.3.0.0^{3,7}.0^{18,22}]henpentacontan-25-yl]acetic acid]	4.39	3.97

— BindingDB's records for doi:10.1021/jm0704898 (Georgetown University Medical Center, 2007)
